Values joined by “and” are separate entries in the source; they are usually repeats but may differ in a detail not shown here. Equal entries are not always repeated. Toxic doses and inconclusive results are not listed. Rule for the calls: active = survival T/C of 150% or more; inactive = T/C below 125% in these data. Numbered stars: 1 amine (or outer) side, 2 acyl side, 3 side chain; on linkers, the order of the positions; unused ones are H or OH. Square brackets hold non-standard residues; d marks the D form. Peptide text beside a SMILES is read from it. ξ: configuration not given here. γGlu = O=C(O)[CH](CCC(=O)[*:2])N[*:1]; Ac5c = NC1(C(=O)O)CCCC1; ξP = O=C(O)C1CCCN1
Tested on: P388 leukemia ip, CD2F1 mice, survival T/C
Experiment: NCI In Vivo Anticancer Drug Screen. Data for tumor model P388 Leukemia (intraperitoneal) in CD2F1 (CDF1) mice
Conditions: endpoint: median survival time, higher = longer survival
Procedure, shortened: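 Mice carrying the transplanted tumor received test compound or vehicle. Survival was recorded in each group, and the value is the treated-group measurement divided by that of the vehicle-treated control group.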

[1] = dose: 50.0 mg/kg/injection, schedule: Q01DX009 (ip), vehicle: saline
[2] = dose: 25.0 mg/kg/injection, schedule: Q01DX009 (ip), vehicle: saline with Tween-80
[3] = dose: 50.0 mg/kg/injection, schedule: Q01DX009 (ip), vehicle: saline with Tween-80
[4] = dose: 100.0 mg/kg/injection, schedule: Q01DX009 (ip), vehicle: saline with Tween-80
[5] = dose: 200.0 mg/kg/injection, schedule: Q01DX009 (ip), vehicle: saline with Tween-80
[6] = dose: 50.0 mg/kg/injection, schedule: Q01DX005 (ip), vehicle: saline
[7] = dose: 100.0 mg/kg/injection, schedule: Q01DX005 (ip), vehicle: saline
[8] = dose: 200.0 mg/kg/injection, schedule: Q01DX005 (ip), vehicle: saline
[9] = dose: 50.0 mg/kg/injection, schedule: Q01DX005 (ip), vehicle: saline with Tween-80
[10] = dose: 100.0 mg/kg/injection, schedule: Q01DX005 (ip), vehicle: saline with Tween-80
[11] = dose: 200.0 mg/kg/injection, schedule: Q01DX005 (ip), vehicle: saline with Tween-80
[12] = dose: 400.0 mg/kg/injection, schedule: Q01DX009 (ip), vehicle: saline with Tween-80
[13] = dose: 50.0 mg/kg/injection, schedule: Q01DX005 (ip), vehicle: Klucel (hydroxypropylcellulose) (HPC)
[14] = dose: 100.0 mg/kg/injection, schedule: Q01DX005 (ip), vehicle: Klucel (hydroxypropylcellulose) (HPC)
[15] = dose: 200.0 mg/kg/injection, schedule: Q01DX005 (ip), vehicle: Klucel (hydroxypropylcellulose) (HPC)
[16] = dose: 6.25 mg/kg/injection, schedule: Q01DX005 (ip), vehicle: Klucel (hydroxypropylcellulose) (HPC)
[17] = dose: 12.5 mg/kg/injection, schedule: Q01DX005 (ip), vehicle: Klucel (hydroxypropylcellulose) (HPC)
[18] = dose: 60.0 mg/kg/injection, schedule: Q01DX005 (ip), vehicle: saline with Tween-80
[19] = dose: 120.0 mg/kg/injection, schedule: Q01DX005 (ip), vehicle: saline with Tween-80
[20] = dose: 240.0 mg/kg/injection, schedule: Q01DX005 (ip), vehicle: saline with Tween-80

Measured: T/C

CC/C(=N/N(C)C)C(=O)OC
inactive: dose: 100.0 mg/kg/injection, schedule: Q04DX002 (ip), vehicle: saline 95 % of control | dose: 200.0 mg/kg/injection, schedule: Q04DX002 (ip), vehicle: saline 100 % of control | dose: 400.0 mg/kg/injection, schedule: Q04DX002 (ip), vehicle: saline 98 % of control

CCOCCOCCOC12C(=O)C(Cl)=C(Cl)C(=O)C13C1CC2C(Cl)C13 (stereo not given)
inactive: dose: 12.5 mg/kg/injection, schedule: Q01DX009 (ip), vehicle: saline 98 % of control | dose: 25.0 mg/kg/injection, schedule: Q01DX009 (ip), vehicle: saline 105 % of control | [1] 105 % of control and 106 % of control

c1ccc(-c2nc3ccccc3o2)cc1
inactive: [2] 86 % of control | [3] 98 % of control | [4] 101 % of control | [5] 88 % of control

NC(CCC(=O)NC(CCC(=O)O)C(=O)NC(CCC(=O)O)C(=O)O)C(=O)O (stereo not drawn) (γGlu-Glu-Glu-OH; configuration not given here)
inactive: [6] 98 % of control | [7] 95 % of control | [8] 102 % of control

CSC(=O)Nc1ccc(C)c(NC(=O)SC)c1
inactive: [9] 94 % of control | [10] 100 % of control | [11] 100 % of control

COc1ccc2c(c1)C(=O)OC2
inactive: [3] 102 % of control | [4] 101 % of control | [5] 99 % of control

COc1ccc(C(=O)NO)cc1
inactive: [3] 109 % of control | [4] 102 % of control | [5] 109 % of control | [12] 115 % of control

Nc1c(S)cc(O)c2c1C(=O)c1ccccc1C2=O
inactive: [13] 99 % of control | [14] 103 % of control | [15] 107 % of control

COc1cc(NCCCCCCNC(C)C)c2ncccc2c1OC
inactive: dose: 1.56 mg/kg/injection, schedule: Q01DX005 (ip), vehicle: Klucel (hydroxypropylcellulose) (HPC) 99 % of control | dose: 3.12 mg/kg/injection, schedule: Q01DX005 (ip), vehicle: Klucel (hydroxypropylcellulose) (HPC) 105 % of control | [16] 105 % of control | [17] 105 % of control

C[n+]1c2ccccc2c(Oc2c3ccccc3[n+](C)c3ccccc23)c2ccccc21
inactive: dose: 60.0 mg/kg/injection, schedule: Q01DX005 (ip), vehicle: Klucel (hydroxypropylcellulose) (HPC) 91 % of control | dose: 120.0 mg/kg/injection, schedule: Q01DX005 (ip), vehicle: Klucel (hydroxypropylcellulose) (HPC) 93 % of control | dose: 240.0 mg/kg/injection, schedule: Q01DX005 (ip), vehicle: Klucel (hydroxypropylcellulose) (HPC) 100 % of control

Cc1ccccc1Nc1ccc([N+](=O)[O-])c2nonc12
inactive: [9] 103 % of control | [10] 98 % of control | [11] 92 % of control

NC1(C(=O)N2CCCC2C(=O)O)CCCC1 (stereo not given) (H-[Ac5c]-[ξP]-OH)
inactive: [6] 96 % of control | [7] 89 % of control | [8] 108 % of control

CCOC/C(=N\NS(=O)(=O)c1ccc(C)cc1)C1(O)Cc2c(O)c3c(c(O)c2C(O)C1)C(=O)c1c(OC)cccc1C3=O (stereo not given)
inactive: dose: 1.56 mg/kg/injection, schedule: Q01DX009 (ip), vehicle: other 100 % of control | dose: 3.13 mg/kg/injection, schedule: Q01DX009 (ip), vehicle: other 100 % of control | dose: 6.25 mg/kg/injection, schedule: Q01DX009 (ip), vehicle: other 103 % of control | dose: 12.5 mg/kg/injection, schedule: Q01DX009 (ip), vehicle: other 107 % of control | dose: 25.0 mg/kg/injection, schedule: Q01DX009 (ip), vehicle: other 94 % of control

COc1cccc(CSCC(N)C(=O)O)c1 (stereo not given)
inactive: [9] 104 % of control | [10] 104 % of control | [11] 90 % of control

Cc1ccc(/C=C2\SC(=S)N(C3CC3)C2=O)cc1
inactive: [13] 97 % of control | [14] 95 % of control | [15] 93 % of control

NC(=O)Nc1ccc(Cc2ccc(NC(N)=O)cc2)cc1
inactive: dose: 50.0 mg/kg/injection, schedule: Q01DX009 (ip), vehicle: Klucel (hydroxypropylcellulose) (HPC) 94 % of control | dose: 100.0 mg/kg/injection, schedule: Q01DX009 (ip), vehicle: Klucel (hydroxypropylcellulose) (HPC) 94 % of control | dose: 200.0 mg/kg/injection, schedule: Q01DX009 (ip), vehicle: Klucel (hydroxypropylcellulose) (HPC) 91 % of control

Cc1cc[n+](C2=C(Nc3ccc(Cl)cc3Cl)C(=O)c3ccccc3C2=O)cc1
inactive: [18] 99 % of control | [19] 106 % of control | [20] 108 % of control

Cc1cc(CCNC=O)c(C)c2c1oc1ccccc12
inactive: [3] 110 % of control | [4] 103 % of control | [5] 94 % of control | [12] 94 % of control

Cc1cc(N=Cc2c(CO)cnc(C)c2O)c(N=Cc2c(CO)cnc(C)c2O)cc1C.[Zn]
inactive: [9] 100 % of control | [10] 99 % of control | [11] 100 % of control

CCOC(=O)c1cc2c(=O)c3c(ccc4ccccc43)oc2n(C)c1=O
inactive: dose: 12.5 mg/kg/injection, schedule: Q01DX005 (ip), vehicle: saline with Tween-80 96 % of control | dose: 25.0 mg/kg/injection, schedule: Q01DX005 (ip), vehicle: saline with Tween-80 94 % of control | [9] 88 % of control

COC1=C(OC)C(C(O)CO)OC1=O (stereo not given)
inactive: dose: 25.0 mg/kg/injection, schedule: Q01DX009 (ip), vehicle: water 98 % of control | dose: 50.0 mg/kg/injection, schedule: Q01DX009 (ip), vehicle: water 98 % of control | dose: 100.0 mg/kg/injection, schedule: Q01DX009 (ip), vehicle: water 90 % of control | dose: 200.0 mg/kg/injection, schedule: Q01DX009 (ip), vehicle: water 99 % of control | dose: 400.0 mg/kg/injection, schedule: Q01DX009 (ip), vehicle: water 96 % of control

CCCCCc1nnc2n1N=C(c1ccc(Cl)cc1)CS2
inactive: [18] 100 % of control | [19] 92 % of control | [20] 91 % of control

CS(=O)(=O)NCCNS(C)(=O)=O
inactive: dose: 100.0 mg/kg/injection, schedule: Q04DX003 (ip), vehicle: saline with Tween-80 106 % of control | dose: 200.0 mg/kg/injection, schedule: Q04DX003 (ip), vehicle: saline with Tween-80 103 % of control | dose: 400.0 mg/kg/injection, schedule: Q04DX003 (ip), vehicle: saline with Tween-80 103 % of control

CCCCP(=O)(CCCC)CCCC.CCCCP(=O)(CCCC)CCCC.CCCCP(=O)(CCCC)CCCC.CCCCP(=O)(CCCC)CCCC.[Ce+3].[O-][Cl+3]([O-])([O-])O
inactive: [3] 97 % of control | [4] 92 % of control | [5] 86 % of control

COc1ccc(C(C2C(=O)CC(C)(C)CC2=O)C2C(=O)CC(C)(C)CC2=O)cc1
inactive: [13] 104 % of control | [14] 101 % of control | [15] 106 % of control

CC(CN(C)C)C(/C=C/c1ccccc1)=N\NC(=O)c1ccccc1 (stereo not given)
inactive: dose: 60.0 mg/kg/injection, schedule: Q01DX005 (ip), vehicle: saline 97 % of control | dose: 120.0 mg/kg/injection, schedule: Q01DX005 (ip), vehicle: saline 96 % of control | dose: 240.0 mg/kg/injection, schedule: Q01DX005 (ip), vehicle: saline 97 % of control

c1ccc2c(c1)CCc1ccccc1C2NC1=NCCSC1
inactive: [3] 86 % of control | [4] 93 % of control

CCOc1ccc2c(N/N=C/c3ccc(N(CCCl)CCCl)cc3)cc(C)nc2c1
inactive: dose: 12.5 mg/kg/injection, schedule: Q01DX009 (ip), vehicle: saline with Tween-80 96 % of control | [2] 94 % of control | [3] 99 % of control and 88 % of control

COc1nc(N)c([N+](=O)[O-])c(C(Br)Br)n1
inactive: [16] 104 % of control | [17] 100 % of control | dose: 25.0 mg/kg/injection, schedule: Q01DX005 (ip), vehicle: Klucel (hydroxypropylcellulose) (HPC) 91 % of control

CCOC(=O)C1=C(NC(C)=O)Sc2ccccc2C1
inactive: [1] 94 % of control | dose: 100.0 mg/kg/injection, schedule: Q01DX009 (ip), vehicle: saline 103 % of control | dose: 200.0 mg/kg/injection, schedule: Q01DX009 (ip), vehicle: saline 92 % of control

CC(C)(C)C(=O)CC(=O)C(C)(C)C.[Cl][Sb]1([Cl])[c]2ccccc2Cc2cccc[c]21
inactive: [3] 100 % of control | [4] 108 % of control | [5] 107 % of control

— PubChem BioAssay AID330 (DTP/NCI, 2004)
